Experimental data reported in US20100029755A1, “P-Glycoprotein inhibitor comprising octilonium bromide as an effective ingredient” (priority 2002, published 2010).
Like-named read-outs stand apart in the source and are kept apart here.

How the values were obtained:
p-glycoprotein [1] = settings: SD, rat, 1 h, 10 μg/ml, pH 6.4
[2] = administered orally; cited from earlier work
p-glycoprotein [3] = settings: SD, rat, 1 h, pH 6.4

absorbed rhodamine 123 as % of the total applied amount (p-glycoprotein [1]) | amount of the absorbed rhodamine 123 (p-glycoprotein [1]) | increase of the amount of absorbed rhodamine by octylonium bromide (p-glycoprotein [1]) | absorbed amount of the doxorubicin (p-glycoprotein [3]; 200 μg/ml) | absorbed doxorubicin as % of the total applied amount (p-glycoprotein [3]; 200 μg/ml) | increase of the amount of absorbed doxorubicin by octylonium bromide (p-glycoprotein [3]; 200 μg/ml) | absorbed amount of the doxorubicin (p-glycoprotein [3]; 50 μg/ml) | absorbed doxorubicin as % of the total applied amount (p-glycoprotein [3]; 50 μg/ml) | Compound | fraction of octylonium bromide absorbed systemically [2] | fraction of octylonium bromide remaining in the gastrointestinal tract [2]
14.5% | 4.3 μg/g tissue | 4.5 folds | 11 μg/g tissue | 3.3% | 28 folds |  |  | CCCCCCCCOc1ccccc1C(=O)Nc1ccc(C(=O)OCC[N+](C)(CC)CC)cc1 [octylonium bromide] | 5% | 95%
 |  |  |  |  |  | 0.4 μg/g tissue | 0.12% | COc1cccc2c1C(=O)c1c(O)c3c(c(O)c1C2=O)C[C@@](O)(C(=O)CO)C[C@@H]3O[C@H]1C[C@H](N)[C@H](O)[C@H](C)O1 [doxorubicin] |  | 
